# According to ChEMBL document CHEMBL1201862, “PubChem BioAssay data set” (2004):
# Active and inactive are the calls of the source.
# Assays:
# [1] = biological target: Adenosylmethionine-8-amino-7-oxononanoate aminotransferase (Mycobacterium tuberculosis, UniProt P9WQ81); assay: Mycobacterium tuberculosis BioA enzyme inhibitor Measured in Biochemical System Using Plate Reader - 2163-02_Inhibitor_Dose_CherryPick_Activity.; format: functional, Mycobacterium tuberculosis UT205
# [2] = biological target: Ras and Rab interactor 1/Tyrosine-protein kinase ABL1 (Homo sapiens, UniProt P00519+Q13671); format: functional;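 also: biochemical TR-FRET dose-response test measuring inhibition of binding between Rin1 and Abl proteins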
# Sequence of Ras and Rab interactor 1/Tyrosine-protein kinase ABL1 (P00519 whole entry): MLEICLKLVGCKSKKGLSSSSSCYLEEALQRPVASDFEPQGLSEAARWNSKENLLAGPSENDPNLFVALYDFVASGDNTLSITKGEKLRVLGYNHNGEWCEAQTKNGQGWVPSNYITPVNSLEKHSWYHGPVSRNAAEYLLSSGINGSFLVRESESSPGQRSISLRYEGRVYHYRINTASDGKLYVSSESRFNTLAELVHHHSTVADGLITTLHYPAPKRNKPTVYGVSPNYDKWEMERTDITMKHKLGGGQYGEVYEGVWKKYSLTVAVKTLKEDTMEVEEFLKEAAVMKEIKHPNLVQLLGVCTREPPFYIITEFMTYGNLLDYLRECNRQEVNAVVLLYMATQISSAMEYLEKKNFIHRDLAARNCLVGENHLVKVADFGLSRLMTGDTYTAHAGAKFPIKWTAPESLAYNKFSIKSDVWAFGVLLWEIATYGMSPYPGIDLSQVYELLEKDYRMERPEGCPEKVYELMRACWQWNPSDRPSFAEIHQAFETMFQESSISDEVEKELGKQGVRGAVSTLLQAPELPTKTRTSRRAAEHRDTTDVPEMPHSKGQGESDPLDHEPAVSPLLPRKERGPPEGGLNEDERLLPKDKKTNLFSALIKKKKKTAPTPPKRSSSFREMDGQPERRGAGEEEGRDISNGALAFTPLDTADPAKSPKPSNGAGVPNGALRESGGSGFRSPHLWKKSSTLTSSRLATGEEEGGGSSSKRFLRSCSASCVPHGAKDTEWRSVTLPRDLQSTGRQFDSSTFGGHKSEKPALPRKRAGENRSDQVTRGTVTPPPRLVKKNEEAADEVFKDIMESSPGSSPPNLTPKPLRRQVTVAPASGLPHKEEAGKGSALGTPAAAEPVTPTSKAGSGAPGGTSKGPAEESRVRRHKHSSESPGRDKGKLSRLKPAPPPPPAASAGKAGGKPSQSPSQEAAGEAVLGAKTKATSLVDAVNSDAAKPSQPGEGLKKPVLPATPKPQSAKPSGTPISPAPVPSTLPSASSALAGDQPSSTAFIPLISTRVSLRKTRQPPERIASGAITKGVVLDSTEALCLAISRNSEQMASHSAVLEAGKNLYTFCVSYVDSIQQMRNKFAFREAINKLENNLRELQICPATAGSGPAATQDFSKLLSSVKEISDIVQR
# Sequence of Ras and Rab interactor 1/Tyrosine-protein kinase ABL1 (Q13671 whole entry): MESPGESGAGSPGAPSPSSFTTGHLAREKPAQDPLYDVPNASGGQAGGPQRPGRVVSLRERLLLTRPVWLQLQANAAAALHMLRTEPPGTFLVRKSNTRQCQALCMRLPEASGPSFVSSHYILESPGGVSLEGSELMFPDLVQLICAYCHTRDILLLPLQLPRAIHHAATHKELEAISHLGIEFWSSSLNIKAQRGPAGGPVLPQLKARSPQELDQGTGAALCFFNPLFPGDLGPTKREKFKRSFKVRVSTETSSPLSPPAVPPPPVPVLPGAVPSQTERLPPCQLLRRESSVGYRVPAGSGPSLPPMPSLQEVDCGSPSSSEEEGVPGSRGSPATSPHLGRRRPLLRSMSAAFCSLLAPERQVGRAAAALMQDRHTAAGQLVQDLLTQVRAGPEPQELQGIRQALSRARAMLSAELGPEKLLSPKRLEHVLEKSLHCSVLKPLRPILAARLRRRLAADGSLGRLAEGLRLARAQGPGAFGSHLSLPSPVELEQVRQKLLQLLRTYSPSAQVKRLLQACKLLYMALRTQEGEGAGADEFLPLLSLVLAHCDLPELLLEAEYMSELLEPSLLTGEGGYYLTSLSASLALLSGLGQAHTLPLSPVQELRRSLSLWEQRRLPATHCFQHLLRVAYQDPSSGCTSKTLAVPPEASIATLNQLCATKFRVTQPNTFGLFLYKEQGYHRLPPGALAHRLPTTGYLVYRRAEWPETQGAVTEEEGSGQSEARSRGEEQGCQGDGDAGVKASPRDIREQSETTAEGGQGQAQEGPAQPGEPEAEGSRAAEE
# [3] = biological target: T1, Histone-lysine N-methyltransferase NSD2 (Homo sapiens, UniProt O96028); format: biochemical
# T1 sequence (O96028 whole entry): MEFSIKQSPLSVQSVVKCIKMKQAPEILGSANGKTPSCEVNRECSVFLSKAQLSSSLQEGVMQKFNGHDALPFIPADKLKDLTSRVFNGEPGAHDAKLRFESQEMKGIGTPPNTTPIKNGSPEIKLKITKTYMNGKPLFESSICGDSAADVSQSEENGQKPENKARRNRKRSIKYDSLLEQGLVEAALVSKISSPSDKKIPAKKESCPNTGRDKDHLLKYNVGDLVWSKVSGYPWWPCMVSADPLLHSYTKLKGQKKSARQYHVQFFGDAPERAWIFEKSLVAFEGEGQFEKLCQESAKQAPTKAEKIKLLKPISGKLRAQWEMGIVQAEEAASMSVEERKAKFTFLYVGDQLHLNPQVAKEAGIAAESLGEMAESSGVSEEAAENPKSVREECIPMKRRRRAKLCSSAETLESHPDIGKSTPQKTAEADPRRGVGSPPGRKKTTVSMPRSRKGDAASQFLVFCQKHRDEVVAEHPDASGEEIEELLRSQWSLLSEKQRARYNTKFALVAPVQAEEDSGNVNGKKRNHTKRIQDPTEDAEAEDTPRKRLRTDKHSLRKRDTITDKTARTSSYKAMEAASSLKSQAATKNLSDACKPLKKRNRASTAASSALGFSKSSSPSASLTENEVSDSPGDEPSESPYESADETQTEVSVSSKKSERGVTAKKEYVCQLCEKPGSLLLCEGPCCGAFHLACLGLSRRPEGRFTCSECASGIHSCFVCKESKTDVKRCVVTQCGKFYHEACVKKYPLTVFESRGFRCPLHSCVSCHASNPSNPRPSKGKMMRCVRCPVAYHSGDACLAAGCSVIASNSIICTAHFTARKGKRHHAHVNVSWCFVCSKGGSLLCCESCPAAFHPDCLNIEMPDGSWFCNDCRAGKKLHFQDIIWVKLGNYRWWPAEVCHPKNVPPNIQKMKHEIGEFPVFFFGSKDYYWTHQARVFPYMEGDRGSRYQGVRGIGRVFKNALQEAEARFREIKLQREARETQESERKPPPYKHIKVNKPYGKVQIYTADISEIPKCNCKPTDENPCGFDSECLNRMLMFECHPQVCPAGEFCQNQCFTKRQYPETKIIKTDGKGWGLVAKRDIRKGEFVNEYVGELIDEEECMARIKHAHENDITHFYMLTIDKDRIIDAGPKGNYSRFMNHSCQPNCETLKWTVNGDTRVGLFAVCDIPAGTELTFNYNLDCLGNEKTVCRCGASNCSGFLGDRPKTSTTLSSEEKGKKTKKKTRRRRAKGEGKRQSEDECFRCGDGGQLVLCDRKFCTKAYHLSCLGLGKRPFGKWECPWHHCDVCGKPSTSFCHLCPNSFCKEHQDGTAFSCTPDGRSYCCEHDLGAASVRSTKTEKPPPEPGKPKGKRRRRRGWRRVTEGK
# [4] = biological target: T2, Orexin/Hypocretin receptor type 1 (Homo sapiens, UniProt O43613); assay: Fluorescence-based cell-based high throughput dose response assay for antagonists of the orexin 1 receptor (OX1R; HCRTR1). [Related pubchem assays (depositor defined):AID434989, AID435008, AID463079, AID485270, AID492963, AID492964, AID492965, AID493232, AID504717, AID504718]; format: functional
# T2 sequence (O43613 whole entry): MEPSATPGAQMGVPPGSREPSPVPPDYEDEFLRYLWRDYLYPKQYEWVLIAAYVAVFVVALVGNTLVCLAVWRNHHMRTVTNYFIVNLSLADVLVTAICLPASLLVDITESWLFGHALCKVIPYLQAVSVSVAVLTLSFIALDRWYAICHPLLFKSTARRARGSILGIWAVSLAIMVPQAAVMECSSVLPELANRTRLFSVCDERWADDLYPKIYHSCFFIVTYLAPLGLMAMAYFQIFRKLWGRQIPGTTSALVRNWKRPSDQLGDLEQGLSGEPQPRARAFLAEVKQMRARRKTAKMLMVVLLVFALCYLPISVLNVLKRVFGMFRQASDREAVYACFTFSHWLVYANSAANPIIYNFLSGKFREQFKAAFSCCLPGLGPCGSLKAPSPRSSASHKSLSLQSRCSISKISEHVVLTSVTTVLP
# CHO-K1 = assay: Counterscreen for antagonists of the orexin 1 receptor (OX1R; HCRTR1): Homogeneous time resolved fluorescence (HTRF)-based cell-based dose response assay to identify antagonists of the parental CHO-K1 cell line. [Related pubchem assays (depositor defined):AID434989, AID435008, AID463079, AID485270, AID492963, AID492964, AID492965, AID493232, AID504699, AID504701]; format: functional; settings: Cricetulus griseus;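 also: potency for inhibition of ATP-stimulated IP1 production as antagonists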
# [5] = Counterscreen for antagonists of the orexin 1 receptor (OX1R; HCRTR1): Fluorescence-based cell-based high throughput dose response assay to identify antagonists of the parental CHO cell line. [Related pubchem assays (depositor defined):AID434989, AID435008, AID463079, AID485270, AID492963, AID492964, AID492965, AID493232, AID504699, AID504701]; format: functional
# [6] = biological target: T2, Orexin/Hypocretin receptor type 1; assay: Homogeneous Time Resolved Fluorescence (HTRF)-based cell-based high throughput dose response assay for antagonists of the orexin 1 receptor (OX1R; HCRTR1). [Related pubchem assays (depositor defined):AID434989, AID435008, AID463079, AID485270, AID492963, AID492964, AID492965, AID493232, AID504717, AID504718]; format: functional
# Orexin receptor type 2 [7] = biological target: T3, Orexin receptor type 2 (Homo sapiens, UniProt O43614); assay: Counterscreen assay for antagonists of the orexin 1 receptor (OX1R; HCRTR1): Homogeneous Time Resolved Fluorescence (HTRF)-based cell-based dose response assay for antagonists of the orexin 2 receptor (OX2R; HCRTR2), run by assay provider.; format: functional
# T3 sequence (O43614 whole entry): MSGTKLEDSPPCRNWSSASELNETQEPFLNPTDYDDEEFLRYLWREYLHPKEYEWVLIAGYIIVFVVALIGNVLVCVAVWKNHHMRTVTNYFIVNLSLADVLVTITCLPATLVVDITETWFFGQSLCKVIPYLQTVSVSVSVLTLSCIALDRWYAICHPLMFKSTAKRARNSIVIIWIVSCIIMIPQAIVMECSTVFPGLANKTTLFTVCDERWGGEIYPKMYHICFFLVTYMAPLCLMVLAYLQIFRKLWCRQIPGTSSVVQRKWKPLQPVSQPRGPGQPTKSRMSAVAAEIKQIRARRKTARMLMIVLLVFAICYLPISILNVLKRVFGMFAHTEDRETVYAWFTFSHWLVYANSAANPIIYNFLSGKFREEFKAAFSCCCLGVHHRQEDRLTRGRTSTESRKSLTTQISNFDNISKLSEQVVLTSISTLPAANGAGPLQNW
# Orexin receptor type 2 [8] = biological target: T3, Orexin receptor type 2; assay: Counterscreen assay for antagonists of the orexin 1 receptor (OX1R; HCRTR1): Fluorescence-based cell-based dose response assay for antagonists of the orexin 2 receptor (OX2R; HCRTR2), run by assay provider.; format: functional
# Melanocortin receptor 4 [9] = biological target: T4, Melanocortin receptor 4 (Homo sapiens, UniProt P32245); assay: inhibitors of MC4R cAMP signaling – cell-based, TR-FRET, biased antagonists, dose response (AID 602298); format: functional;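 also: antagonist potency against agonist-stimulated cAMP production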
# T4 sequence (P32245 whole entry): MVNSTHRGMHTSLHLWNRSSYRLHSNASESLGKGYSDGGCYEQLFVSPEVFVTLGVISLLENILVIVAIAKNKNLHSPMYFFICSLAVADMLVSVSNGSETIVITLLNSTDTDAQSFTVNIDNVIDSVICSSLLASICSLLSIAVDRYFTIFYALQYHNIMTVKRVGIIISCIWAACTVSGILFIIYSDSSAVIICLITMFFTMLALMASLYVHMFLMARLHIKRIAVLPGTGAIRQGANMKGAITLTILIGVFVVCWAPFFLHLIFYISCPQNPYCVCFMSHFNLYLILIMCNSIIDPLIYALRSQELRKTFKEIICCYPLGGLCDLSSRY
# [10] = cAMP pathway inhibition in counterscreen cell line – TR-FRET cAMP detection, counter-screen for MC4R biased antagonist project, dose response (AID 602305); format: functional, cell-based;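 also: U2OS cells stimulated with forskolin near its EC80 as the cAMP inducer; potency is for inhibition of forskolin-stimulated cAMP signaling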
# HEK293 = assay: EBV LMP1 TES2 canonical NF-kB signalling blockers – cell-based, HEK293, luciferase, cherry-pick, dose response (AID 588343); format: functional; settings: Homo sapiens
# Interleukin-8 [11] = biological target: T5, Interleukin-8 (Homo sapiens, UniProt P10145); assay: Dose Response confirmation of uHTS small molecule hits for cystic fibrosis induced NFkb Inhibitors in a PAF-induced IL8 counterscreen.; format: functional; settings: read-out: IC50_Mean
# T5 sequence (P10145 whole entry): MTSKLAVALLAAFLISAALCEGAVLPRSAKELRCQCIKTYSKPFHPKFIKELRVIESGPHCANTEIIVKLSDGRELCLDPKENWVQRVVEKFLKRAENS
# Interleukin-8 [12] = biological target: T5, Interleukin-8; assay: Dose Response confirmation of uHTS small molecule hits for cystic fibrosis induced NFkb Inhibitors in a TNFa-induced IL8 counterscreen.; format: functional; settings: read-out: IC50_Mean
# [13] = biological target: Mitogen-activated protein kinase 10 (Homo sapiens, UniProt P53779); assay: Dose response biochemical screening assay for inhibitors of c-Jun N-Terminal Kinase 3 (JNK3). [Related pubchem assays: 746 ]
# Sequence of Mitogen-activated protein kinase 10 (P53779 whole entry, the tested form may be a part): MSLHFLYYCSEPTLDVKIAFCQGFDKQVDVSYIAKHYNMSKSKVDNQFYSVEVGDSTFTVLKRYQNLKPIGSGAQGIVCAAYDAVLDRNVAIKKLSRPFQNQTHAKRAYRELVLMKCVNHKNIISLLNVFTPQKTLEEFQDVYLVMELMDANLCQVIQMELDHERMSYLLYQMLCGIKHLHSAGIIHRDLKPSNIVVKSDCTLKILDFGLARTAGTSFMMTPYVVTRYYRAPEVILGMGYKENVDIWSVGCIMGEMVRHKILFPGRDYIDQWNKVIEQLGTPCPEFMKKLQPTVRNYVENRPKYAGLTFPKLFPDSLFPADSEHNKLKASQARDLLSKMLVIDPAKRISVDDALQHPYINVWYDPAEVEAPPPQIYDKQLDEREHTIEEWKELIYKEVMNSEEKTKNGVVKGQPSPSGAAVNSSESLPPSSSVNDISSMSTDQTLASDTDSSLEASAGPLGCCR
# [14] = biological target: Hepatocyte nuclear factor 4-alpha (Homo sapiens, UniProt P41235); format: functional, cell-based;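 also: biochemical luminescence-based dose-response counterscreen measuring inhibition of HNF4 dimerization, run alongside a screen for blockers of ABHD5–perilipin-5 interaction; split luciferase complementation of HNF4 fusion proteins in cell lysate measuring dimerization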
# Sequence of Hepatocyte nuclear factor 4-alpha (P41235 whole entry, the tested form may be a part): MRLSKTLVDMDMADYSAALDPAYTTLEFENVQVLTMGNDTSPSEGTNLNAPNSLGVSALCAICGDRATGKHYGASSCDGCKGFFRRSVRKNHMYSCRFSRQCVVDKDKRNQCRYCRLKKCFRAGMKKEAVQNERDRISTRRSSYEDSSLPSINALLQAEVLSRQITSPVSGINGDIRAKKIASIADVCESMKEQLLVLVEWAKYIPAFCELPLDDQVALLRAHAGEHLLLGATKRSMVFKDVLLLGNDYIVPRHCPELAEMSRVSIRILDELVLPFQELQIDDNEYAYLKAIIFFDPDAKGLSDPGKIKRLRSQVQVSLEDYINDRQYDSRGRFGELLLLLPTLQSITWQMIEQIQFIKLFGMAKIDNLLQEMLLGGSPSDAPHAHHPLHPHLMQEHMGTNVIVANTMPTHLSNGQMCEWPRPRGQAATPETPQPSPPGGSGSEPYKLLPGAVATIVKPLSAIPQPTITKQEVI
# [15] = blockers of HIV-1 envelope-mediated cell-cell fusion – cherry-pick, dose response (AID 652057); format: functional, cell-based
# [16] = HIV-1 AD8 envelope cell-cell fusion blockers – cherry-pick, dose response (AID 652062); format: functional, cell-based;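 also: luciferase signal from cell-cell fusion driven by HIV-1 clade B AD8 Env; potency is for inhibitors of fusion seen as a drop in luminescence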
# Melanocortin receptor 4 [17] = biological target: T4, Melanocortin receptor 4; format: functional, cell-based
# [18] = luciferase reporter signal suppression in cells – H4 neuroglioma cells, luminescence, dose response (AID 1990); format: functional, cell-based
# [19] = alpha-synuclein stem-loop luciferase translation blockers – H4 neuroglioma cells, luminescence, confirmation (AID 1988); format: functional, cell-based
# [20] = Luminescence Cell-Based Dose Response HTS to Identify Inhibitors of 5'UTR Stem-Loop Driven Prion Protein mRNA Translation in H4 Neuroglioblastoma Cells. [Related pubchem assays: 1827 (Project Summary), 1813 (Primary HTS)]; format: functional
# [21] = inhibition of ARNT PAS-B/TACC3 complex formation – biochemical, AlphaScreen, cherry-picked samples, confirmation (AID 651703); format: functional, Homo sapiens;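 also: His-tagged ARNT PAS-B domain paired with GST-TACC3 E629A dimer coactivator fragment; potency of inhibitors that break up the complex and lower AlphaScreen signal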
# Sequence of Adenosylmethionine-8-amino-7-oxononanoate aminotransferase (P9WQ81 whole entry): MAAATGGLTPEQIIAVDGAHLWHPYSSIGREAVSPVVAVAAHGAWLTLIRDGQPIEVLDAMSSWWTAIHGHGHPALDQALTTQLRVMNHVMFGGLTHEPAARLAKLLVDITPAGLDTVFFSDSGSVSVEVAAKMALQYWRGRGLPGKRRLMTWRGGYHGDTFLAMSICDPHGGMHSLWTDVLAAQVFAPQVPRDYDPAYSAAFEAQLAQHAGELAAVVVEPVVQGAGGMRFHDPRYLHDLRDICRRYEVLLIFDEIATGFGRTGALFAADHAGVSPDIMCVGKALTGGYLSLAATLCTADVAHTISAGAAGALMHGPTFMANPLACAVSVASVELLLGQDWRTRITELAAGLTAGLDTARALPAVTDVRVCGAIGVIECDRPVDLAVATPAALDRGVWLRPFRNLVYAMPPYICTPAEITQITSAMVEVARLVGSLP
compound,measurement,setting,value
O=C(c1ccc(Br)s1)N1CCN(Cc2ccc3c(c2)OCO3)CC1,AC50,[1],1.64 µM (active)
CCOC(=O)CCCCC(=O)c1[nH]c(O)nc1CSc1nc(C)cc(O)n1,IC50,[2],0.192 µM (active)
same,AC50,[3],8.18 µM (active)
COc1cccc(OP(=O)(Nc2ccccc2)Oc2cccc(OC)c2)c1,IC50,[4],14.5 µM (inactive)
same,IC50,CHO-K1,> 66.2 µM (inactive)
same,IC50,[5],> 49.7 µM (inactive)
same,IC50,[6],9.26 µM (active)
same,IC50,Orexin receptor type 2 [7],> 50 µM (inactive)
same,IC50,Orexin receptor type 2 [8],> 88.8 µM (inactive)
Cc1cc2nccc(-c3ccc(Cl)c([N+](=O)[O-])c3)n2n1,IC50,Melanocortin receptor 4 [9],> 64.6 µM (inactive)
same,IC50,[10],> 64.6 µM (inactive)
COc1cc(OC)c(C(=O)Nc2cccnc2)cc1OC,AC50,[1],1.81 µM (active)
CCn1c(=O)c2c(cnn2C)c2ccccc21,AC50,HEK293,35.3 µM (active)
same,IC50,Interleukin-8 [11],46.2 µM (inactive)
same,IC50,Interleukin-8 [12],> 79 µM (inactive)
CCn1c(C)cs/c1=N/C(=O)c1ccccc1O,IC50,[4],7.37 µM (active)
same,IC50,CHO-K1,> 66.3 µM (inactive)
same,IC50,[5],> 49.8 µM (inactive)
same,IC50,[13],40.7 µM (not active)
same,IC50,[6],2.69 µM (active)
same,IC50,Orexin receptor type 2 [7],> 50 µM (inactive)
same,IC50,Orexin receptor type 2 [8],> 88.8 µM (inactive)
O=C1OCCC1Sc1nc2cc(Cl)ccc2n1Cc1ccccc1 (stereo unspecified),IC50,Melanocortin receptor 4 [9],> 64.6 µM (inactive)
same,IC50,[10],> 64.6 µM (inactive)
O=C(NC1CCCCC1)C(c1ccnc2ccccc12)n1c(=O)c(-c2ccco2)nc2ccccc21 (stereo unspecified),IC50,[14],2.23 µM (active)
O=S(=O)(NC1CC1)c1ccc(S(=O)(=O)N2CCCc3ccccc32)cc1,AC50,[15],28.3 µM (active)
same,IC50,[4],6.07 µM (active)
same,IC50,CHO-K1,> 66.2 µM (inactive)
same,IC50,[5],18.2 µM (inactive)
same,IC50,[6],6.71 µM (active)
same,IC50,Orexin receptor type 2 [7],6.62 µM (active)
same,IC50,Orexin receptor type 2 [8],> 88.8 µM (inactive)
same,AC50,[16],16.9 µM (active)
N#CC(C#N)c1ccnc2ccccc12,AC50,HEK293,11.5 µM (active)
same,IC50,Interleukin-8 [11],> 79 µM (inactive)
same,IC50,Interleukin-8 [12],40.4 µM (inactive)
Cc1ccccc1-c1nc(-c2ccc(NC(=O)c3ccc4c(c3)OCO4)cc2)no1,EC50,Melanocortin receptor 4 [17],> 89.1 µM (inactive)
O=C(NCCCn1ccnc1)C(=O)NCC1OCCCN1S(=O)(=O)c1ccccc1 (stereo unspecified),EC50,[18],> 120 µM (not active)
same,EC50,[19],> 120 µM (not active)
same,EC50,[20],17.5 µM (active)
same,AC50,[21],80 µM (active)
